Assay results from publication PMC3672506, “A useful EGFR-TK ligand for tumor diagnosis with SPECT: development of radioiodinated 6-(3-morpholinopropoxy)-7-ethoxy-4-(3′-iodophenoxy)quinazoline” (Annals of Nuclear Medicine, 2013).

Experiments:
[1] = tested on: NALM6 cell membranes; format: binding; settings: NALM6, negative-EGFR leukemia cell line
Protocol: (§1) Assays were carried out as described in the previous section. Crude P2 membrane fractions (A431or NALM6, 0.1 mg of protein, 10 μL) and [^125I]PYK (1–300 nM, 100 μL, 0.74 kBq) were used. […] Specific binding was defined as the difference between the total and non-specific binding. Scatchard plot analysis of the saturation binding data was used to determine the equilibrium dissociation constant (K d) and the maximal number of binding sites (B max).
(§2) The crude P2 membrane fraction from A431 or NAlM6 cells were used in further binding experiments for pharmacological characterization. […] While, in the NALM6 as a negative-EGFR leukemia cell line, [^125I]PYK binding to cell membranes was undetectable.

[2] = target: EGFR-TK in A431 cell membranes (Homo sapiens, UniProt P00533); format: binding
Protocol: as §1, §2

[3] = tested on: A431 tumor; experiment: Tumor uptake of radioiodinated ligands in A431 tumor-bearing mice; format: in vivo, balb/c nude mice; settings: for accumulation in tumors: i.v.
Protocol: A suspension of 1 × 10^7 A431 cells in 0.1 mL of medium was inoculated subcutaneously in male balb/c nude mice (4 weeks old, 20–25 g, n = 3). After approximately 2 weeks, when the solid tumor had grown to optimal size, the mice were used for tumor uptake studies. [^125I]6a–d (37 kBq, 74 TBq/mmol) in 0.1 mL of saline was injected intravenously into tumor-bearing mice via the lateral tail vein. At 1 or 24 h after administration, the animals were sacrificed. Samples of tumor were excised and weighed. Radioactivity was measured using a well-type NaI(Tl) scintillation gamma counter. The results were expressed in terms of percentage of injected dose per gram of tumor.

[4] = tested on: A431 tumor; experiment: SPECT/CT imaging of A431 tumor-bearing mice; format: in vivo; settings: 24 h after injection
Protocol: The mice underwent SPECT/CT studies when A431 tumors had grown to optimal size (approximately 2 weeks after inoculation). ^125I gamma camera imaging and image processing were performed using a small-animal imaging system with pinhole collimation (aperture diameter = 1 mm, focal length = 9 cm) and a 15- to 45 keV photo peak energy window (PET/SPECT/CT FX system, Gamma Medica Ideas). […] 24 h after injection, SPECT scans were performed at 64 projections over 360° (ROR = 4.5 cm, 60 s/projection). Reconstructed data from SPECT and CT were visualized and coregistered using AMIRA 3.1.
[^125I]PYK-SPECT images of tumors were very clear without interference from radioactivity in peripheral organs.

[5] = A431 tumor-bearing mice, 24 h after injection

Sequence of EGFR-TK in A431 cell membranes (P00533 25-1210): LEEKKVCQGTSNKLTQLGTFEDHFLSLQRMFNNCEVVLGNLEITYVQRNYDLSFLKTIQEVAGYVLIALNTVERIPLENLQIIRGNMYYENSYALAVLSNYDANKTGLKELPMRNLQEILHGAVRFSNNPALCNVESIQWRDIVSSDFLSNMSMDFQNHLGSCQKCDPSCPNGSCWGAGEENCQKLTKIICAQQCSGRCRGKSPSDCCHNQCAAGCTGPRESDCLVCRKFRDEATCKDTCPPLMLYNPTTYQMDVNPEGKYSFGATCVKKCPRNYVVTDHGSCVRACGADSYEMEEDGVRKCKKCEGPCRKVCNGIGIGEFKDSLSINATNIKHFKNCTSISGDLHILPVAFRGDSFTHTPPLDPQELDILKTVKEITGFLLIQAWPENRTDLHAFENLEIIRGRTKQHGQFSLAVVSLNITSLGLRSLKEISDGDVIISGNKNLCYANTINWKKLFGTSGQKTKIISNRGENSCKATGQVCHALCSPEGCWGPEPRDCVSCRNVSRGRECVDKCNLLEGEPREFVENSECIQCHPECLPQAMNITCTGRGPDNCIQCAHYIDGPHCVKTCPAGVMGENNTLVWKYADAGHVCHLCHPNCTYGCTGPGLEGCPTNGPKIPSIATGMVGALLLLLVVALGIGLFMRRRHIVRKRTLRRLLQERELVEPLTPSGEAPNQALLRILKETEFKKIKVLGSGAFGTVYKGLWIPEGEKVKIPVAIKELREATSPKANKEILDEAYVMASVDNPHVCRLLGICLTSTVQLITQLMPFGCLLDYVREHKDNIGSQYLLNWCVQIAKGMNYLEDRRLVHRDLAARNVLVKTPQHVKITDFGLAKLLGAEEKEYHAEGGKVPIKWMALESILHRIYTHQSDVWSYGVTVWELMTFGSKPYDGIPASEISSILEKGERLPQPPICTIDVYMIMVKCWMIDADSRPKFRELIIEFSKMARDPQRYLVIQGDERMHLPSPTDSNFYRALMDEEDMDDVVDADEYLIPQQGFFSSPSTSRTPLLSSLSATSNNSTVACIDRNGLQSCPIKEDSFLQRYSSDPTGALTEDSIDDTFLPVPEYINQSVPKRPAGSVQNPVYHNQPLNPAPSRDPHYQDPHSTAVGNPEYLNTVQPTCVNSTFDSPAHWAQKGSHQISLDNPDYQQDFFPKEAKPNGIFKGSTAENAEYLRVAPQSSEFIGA

CCOc1cc2ncnc(Oc3cccc([125I])c3)c2cc1OCCCN1CCOCC1 [[^125I]PYK]
binding to cell membranes [1]: undetectable | Bmax ([2]; A431 P2 membranes, Scatchard analysis): 27.0 ± 3.43 pmol/mg protein | Hill's constant value ([2]; A431 membranes): 1.02 | tumor accumulation relative to [125I]PHY ([3]; 1 h post injection): approximately 8 folds | retention in tumors (in words) [3, 5]: good retention | accumulation in tumors ([3]; A431 tumor-bearing mice, 1 h post injection): 4.37 ± 0.65 % ID/g tissue | accumulation in tumors [3, 5]: 1.53 ± 0.15 % ID/g tissue | SPECT images of tumors (in words) [4]: very clear
